The values that follow come from patent publication US7018801B2, “Selection of peptides with antibody-like properties” (Board of Regents, The University of Texas System, priority 2000, dated 2006).

Peptide text beside a SMILES is read from it.

The target in test [1] is ICS (pro-IL-1β-derived epitope, 14 mer) (Homo sapiens, UniProt P01584, A117G). Kind of test: Measured KD of the LEPB-ICS complex. The class given is binding. An excerpt:
Finally, the most rigorous tests for peptide-peptide interaction involve spectroscopic assays. These experiments provide quantitative data regarding the affinity of the LEP for the epitope target. For example, fluorescence polarization (Heyduk et al., 1996) can be employed. In this experiment, one of the peptides is synthesized with a covalently coupled fluorescein molecule. A low concentration of this species (usually 10^−8 M to 10^−10 M) is titrated with increasing amounts of a fusion protein containing the partner peptide. The increase in the polarization of the fluorescence as a result of binding of the low molecular weight fluorescein-peptide conjugate to the high molecular weight fusion protein is monitored.
The affinities of the isolated peptides for their epitope targets can be determined by a number of methods. These include fusion of one or both of the interacting peptides to heterologous proteins, followed by the binding of one of the fusions to an affinity resin. The affinity of the partner fusion protein for this resin is then determined. Another common technique is surface plasmon resonance, in which one of the interacting peptides or fusion proteins is immobilized on an appropriately modified gold surface, and the on and off rates of the partner peptide are measured using the commercially available BIAcore instrument or an equivalent. […]

Test [2] addresses T1, GST fusion protein containing the target epitope (Homo sapiens, UniProt P01584, A117G).
T1 construct: made in house
The test can be described thus: Far Western blot of DBD-LEP fusions probed with GST-epitope fusion protein. The class given is binding. The conditions noted are these: extract of phage-resistant cells expressing DBD-LEP fusion; anti-GST antibody detection. The protocol: FIG. 5—“Far Western” blot protocol to eliminate false positives. An extract is prepared from phage-resistant cells that express the DBD-LEP fusion. This is electrophoresed through a denaturing gel, then blotted onto a membrane. This is probed with a GST fusion protein containing the target epitope, followed by labeled anti-GST antibody to visualize the site(s) of binding of the GST-peptide fusion protein.
The putative epitope-binding LEPs that survive the tests described above are then tested biochemically for epitope binding. […] This is done by expressing a GST fusion protein containing the target peptide at the C-terminus. This protein is then employed as a probe in a Far-Western blot experiment (FIG. 5). Crude extracts from cells that express the Repressor DBD-LEP fusion are electrophoresed through a denaturing gel and blotted onto a suitable surface, such a nitrocellulose. The blot is then probed with the GST-epitope fusion protein, followed by anti-GST antibody and finally an HRP-conjugated secondary to visualize the binding events. Lanes in which the band corresponding to the Repressor DBD-LEP is bound by the GST-epitope fusion protein are considered true hits.

A word on the Kd: it is the concentration at which binding is half-saturated. A low value points to higher affinity.

As for `CC(C)C[C@H](NC(=O)[C@H](CCC(=O)O)NC(=O)[C@H](C)NC(=O)[C@H](CCC(=O)O)NC(=O)[C@H](CCCCN)NC(=O)[C@H](CCCNC(=N)N)NC(=O)[C@H](C)NC(=O)[C@@H](N)CCCCN)C(=O)N[C@@H](C)C(=O)N[C@@H](C)C(=O)N[C@@H](C)C(=O)N[C@H](C(=O)N[C@@H](C)C(=O)N[C@@H](CCC(=O)O)C(=O)N[C@@H](CCC(N)=O)C(=O)O)[C@@H](C)O` [LEPB] (H-KARKEAELAAATAEQ-OH), the dissociation constant Kd in test [1] came out at 2 µM.
Regarding “PCHLNCSLQTLSPTRTTPRKHCKHCFKTLSEKMKWN [LEPD]”, the “Far Western blot signal” value in test [2] is “weak or unobservable signals”.
